Reference: patent publication US20080226718A1, “Indole and Azaindole Derivatives For the Treatment of Inflammatory and Autoimmune Diseases” (Brane Discovery S.r.l, priority 2005, published 2008)

Legend:
monocytes [1] = experiment: Chemokine-induced rapid adhesion of monocytes to fibrinogen (fMLP); format: cell-based; settings: Homo sapiens, Monocyte, fMLP 100 nM; for inhibition at 10 µM: [cpd] 10 μM; for inhibition at 25 µM: [cpd] 25 μM; for inhibition at 50 µM: [cpd] 50 μM
Method: (§1) Adhesion was performed on purified integrin ligands and was evaluated as reported in Constantin G. et al., Immunity, 16, 759-769, 2000. Briefly, primary naïve lymphocytes, polymorphonuclear neutrophils (PMNs) or monocytes were isolated form healthy donors. In other experiments, murine autoreactive T cells were obtained from SJL mice immunized with PLP139-151 as described (Piccio L. et al., J. Immunol, 168, 1940-1949, 2002). Cells were resuspended at 4×10^6/ml in PBS, CaCl2, MgCl2 1 mM, 10% FCS, pH 7.2. Adhesion assays were performed on eighteen well glass slides coated overnight at 4° C. with ligands for CR3 (fibrinogen) or LFA-1 (ICAM-1). 20 μl of cell suspension were added to the wells and stimulated at 37° C. with 5 μl of agonists prior to washing, fixation and computer-assisted enumeration of bound cells.
(§2) Integrin activation was measured as induction of rapid adhesion triggered by the classical chemoattractant N-formyl-L-methionyl-L-leucyl-phenylalanine (fMLP) (100 nM) or by the CC chemokine MIP3β (CCL19, 1 μM). PMNs and monocytes were triggered to adhere to fibrinogen (CR3 ligand); naive human lymphocytes or murine encephalitogenic T cells were triggered to adhere to ICAM-1 (LFA-1 ligand). Triggered adhesion was evaluated after 2 min of stimulation under static conditions. The cells were pretreated at 37° C. for 30-60 min with the indicated concentrations of the test compound. Results are expressed as percentage of inhibition over control (=100%) and are the mean of three experiments in the case of human leukocytes. Results are expressed as mean counts and are the mean counts ±S.D of three experiments and are the mean of three experiments in the case of murine encephalitogenic lymphocytes.

[2] = tested on: encephalitogenic lymphocytes; experiment: Spontaneous adhesion of encephalitogenic T cells on purified ICAM-1; format: cell-based, SJL mice; settings: Mus musculus, Lymphocyte, 1 h; for inhibition at 5 µM: [cpd] 5 μM, read-out: Inhibition of Spontaneous Adhesion in encephalitogenic lymphocytes (% of control/non-treated cells) ICAM-1; for inhibition at 10 µM: [cpd] 10 μM; for inhibition at 10 µM / inhibition at 50 µM: read-out: Inhibition of Spontaneous Adhesion in encephalitogenic lymphocytes (% of control/non-treated cells) ICAM-1 (converted); for inhibition at 50 µM: [cpd] 50 μM
Method: Spontaneous adhesion of encephalitogenic lymphocytes was measured in adhesion assays on purified ICAM-1 and VCAM-1 as previously described (Constantin G. et al., J. Immunol. 162, 1144-1149, 1999). Autoreactive T cells were obtained from SJL mice immunized with PLP139-151 as described (Piccio L. et al., J. Immunol. 168, 1940-1949, 2002). Lymphocytes were treated with test compound at concentrations between 5-100 μM for 1 h, while control/untreated cells were treated with vehicle (DMSO). Results are expressed as percentage of inhibition over control (=100%) ±S.D and are the mean of three-four experiments.
ICAM-1 and VCAM-1 are adhesion molecules from the family of immunoglobulins and control the migration of lymphocytes through the endothelium during inflammatory responses. Encephalitogenic T cells are activated lymphocytes displaying spontaneous adhesion on ICAM-1 and VCAM-1 and have increased migration capacities in inflammation sites. Spontaneous adhesion of encephalitogenic lymphocytes was measured in adhesion assays on purified ICAM-1 and VCAM-1 as described in the method.

PMNs [3] = experiment: Chemotaxis assay, PMNs (fMLP); format: cell-based; settings: Homo sapiens, fMLP 10 nM, 2 h; for inhibition at 10 µM: [cpd] 10 μM; for inhibition at 25 µM: [cpd] 25 μM; for inhibition at 50 µM: [cpd] 50 μM
Method: (§3) PMNs and monocytes migration was assessed using 1 or 3-μm pore size transwells (Bio-Coat Becton-Dickinson), while lymphocytes by using 5-elm pore size transwells.
(§4) Cells were in RPMI1640, containing 10% heat-inactivated Fetal Calf Serum (FCS) and 20 mM HEPES, pH 7.3, at 2×10^6/ml. 100 μl of cell suspension were added to the top well, and 600 μl of medium, containing chemoattractants and test compound, were added to the bottom well. Migration was evaluated after 2 h for PMNs and monocytes and after 4 h for lymphocytes. fMLP 10 nM (PMNs and monocytes) and MIP-3β 100 nM (lymphocytes) were utilized as chemoattractants. After fixation with 1.5% glutaraldehyde, migrated cells were counted by fluorescence-activated celli sorting using polystyrene beads (Polyscience) as an internal standard (Campbell J. J. et al. J. Cell. Biol. 134, 255-266, 1996; Laudanna C. et al. J. Biol. Chem. 273,46, 30306-30315, 1998).
(§5) Results are expressed as percentage of inhibition over control (=100%), and are the mean of three experiments.

lymphocytes [4] = experiment: Chemokine-induced rapid adhesion of lymphocytes to ICAM-1 (MIP3β); format: cell-based; settings: Homo sapiens, Lymphocyte, MIP3β 1 μM; for inhibition at 10 µM: [cpd] 10 μM, read-out: Inhibition of Adhesion (%) Lymphocytes (MIP3-β); for inhibition at 25 µM: [cpd] 25 μM; for inhibition at 25 µM / inhibition at 50 µM: read-out: Inhibition of Adhesion (%) Lymphocytes (MIP3-β) (converted); for inhibition at 50 µM: [cpd] 50 μM
Method: as §1, §2
(§6) Integrin activation was measured as induction of rapid adhesion triggered by the “classical” chemoattractant fMLP (100 nM) or by the CC chemokine MIP3β (CCL19, 1 μM). PMNs were triggered to adhere to fibrinogen (CR3 ligand); lymphocytes were triggered to adhere to ICAM-1 (LFA-1 ligand).

monocytes [5] = experiment: Chemotaxis assay, monocytes (fMLP); format: cell-based; settings: Homo sapiens, Monocyte, fMLP 10 nM, 2 h; for inhibition at 10 µM: [cpd] 10 μM; for inhibition at 25 µM: [cpd] 25 μM; for inhibition at 50 µM: [cpd] 50 μM
Method: as §3, §4, §5

lymphocytes [6] = experiment: Chemotaxis assay, lymphocytes (MIP-3β); format: cell-based; settings: Homo sapiens, Lymphocyte, MIP-3β 100 nM, 4 h; for inhibition at 10 µM: [cpd] 10 μM, read-out: Inhibition of Chemotaxis (%) Lymphocytes (MIP3-β); for inhibition at 25 µM: [cpd] 25 μM; for inhibition at 25 µM / inhibition at 50 µM: read-out: Inhibition of Chemotaxis (%) Lymphocytes (MIP3-β) (converted); for inhibition at 50 µM: [cpd] 50 μM
Method: as §3, §4, §5

PMNs [7] = experiment: Chemokine-induced rapid adhesion of PMNs to fibrinogen (fMLP); format: cell-based; settings: Homo sapiens, 2 min, fMLP 100 nM; for inhibition at 10 µM: [cpd] 10 μM; for inhibition at 25 µM: [cpd] 25 μM; for inhibition at 50 µM: [cpd] 50 μM
Method: as §1, §2, §6

[8] = tested on: encephalitogenic lymphocytes; experiment: Chemokine-induced adhesion of murine encephalitogenic T cells to ICAM-1; format: cell-based, SJL mice; settings: ICAM-1; for Chemokine-induced Adhesion in encephalitogenic lymphocytes, Mean counts ± S.D., in presence of MIP3-β stimulation: 1 μM CCL19 (MIP-3beta)
Method: as §1, §2
Chemokines trigger rapid arrest of lymphocytes in blood vessels through pertussis toxin-sensitive G protein coupled receptors. Rapid adhesion to purified ICAM-1 was measured in in vitro adhesion assays using control/untreated cells and lymphocytes treated with concentration between 5-50 μM for 1 h. Autoreactive lymphocytes were then stimulated with 1 μM CCL19 (MIP-3beta) for 3 min. […] These compounds were already efficient in blocking adhesion using a concentration of 5 μM for the cell treatment.

| SMILES | inhibition at 10 µM (monocytes [1]) | inhibition at 25 µM (monocytes [1]) | inhibition at 50 µM (monocytes [1]) | inhibition at 5 µM [2] | inhibition at 10 µM [2] | inhibition at 50 µM [2] | inhibition at 10 µM (PMNs [3]) | inhibition at 25 µM (PMNs [3]) | inhibition at 50 µM (PMNs [3]) | inhibition at 10 µM (lymphocytes [4]) | inhibition at 25 µM (lymphocytes [4]) | inhibition at 50 µM (lymphocytes [4]) | inhibition at 10 µM (monocytes [5]) | inhibition at 25 µM (monocytes [5]) | inhibition at 50 µM (monocytes [5]) | inhibition at 10 µM (lymphocytes [6]) | inhibition at 25 µM (lymphocytes [6]) | inhibition at 50 µM (lymphocytes [6]) | inhibition at 10 µM (PMNs [7]) | inhibition at 25 µM (PMNs [7]) | other results |
| --- | --- | --- | --- | --- | --- | --- | --- | --- | --- | --- | --- | --- | --- | --- | --- | --- | --- | --- | --- | --- | --- |
| COc1cc2[nH]c(C(=O)N3CCOCC3)c(-c3ccccc3)c2cc1OC [Example 47] | 8.7% | 14.4% | 22.4% | 7.1% | 17.2% | 93.4% | 75.4% | 87.5% | 96.1% | 43.8% | 52.5% | 77.5% | 56.5% | 82.4% | 93.9% | 44.3% | 66.6% | 88.2% | 16.6% | 37.1% | inhibition at 50 µM (PMNs [7]): 45.4% |
| COc1ccc(-c2c3n(c4cc(OC)c(OC)cc24)CC(=O)NC3)cc1 [Example 66] | 11.3% | 28.7% | 40.4% | 15% | 33.7% | 92.9% | 50% | 77.8% | 92.6% | 61.3% | 68.1% | 79% | 43.9% | 74.4% | 92.7% | 57.5% | 89.6% | 87.7% | 6.1% | 11.5% | inhibition at 50 µM (PMNs [7]): 17.2% |
| COc1ccc(-c2c3n(c4cc(OC)c(OC)cc24)CCOC3)cc1 [Example 76] |  |  |  |  |  |  |  |  |  |  |  |  |  |  |  |  |  |  |  |  | Chemokine-induced Adhesion in encephalitogenic lymphocytes, Mean counts ± S.D., in presence of MIP3-β stimulation ([8]; [cpd] 1 μM): 102.9 ± 2.9; Adhesion in encephalitogenic lymphocytes, Mean counts ± S.D., in absence of MIP3-β stimulation ([8]; [cpd] 1 μM): 36.9 ± 4.0; Chemokine-induced Adhesion in encephalitogenic lymphocytes, Mean counts ± S.D., in presence of MIP3-β stimulation ([8]; [cpd] 5 μM): 87.7 ± 12.0; Adhesion in encephalitogenic lymphocytes, Mean counts ± S.D., in absence of MIP3-β stimulation ([8]; [cpd] 5 μM): 28.3 ± 8.9; Chemokine-induced Adhesion in encephalitogenic lymphocytes, Mean counts ± S.D., in presence of MIP3-β stimulation ([8]; [cpd] 50 μM): 66.6 ± 1.8; Adhesion in encephalitogenic lymphocytes, Mean counts ± S.D., in absence of MIP3-β stimulation ([8]; [cpd] 50 μM): 23.0 ± 1.9; inhibition at 100 µM (PMNs [7]; [cpd] 100 μM): 66% |
| CNC(=O)c1[nH]c2cc(OC)c(OC)cc2c1-c1ccccc1 [Example 48] | 7.5% | 22.5% | 31.7% | 37.5% | 65.6% | 95.6% | 82.4% | 87.8% | 96.4% | 53.7% | 77.3% | 91.5% | 71.7% | 90.4% | 96.5% | 48.9% | 77.3% | 94.9% | 18% | 48.9% | inhibition at 50 µM (PMNs [7]): 53.7% |
